# Measured values from US7968530B2 (priority 2005, dated 2011).
# Read-outs that look alike come from different tables or passages of the source.
# Columns and labels:
# Phytophthora infestans [1] = conditions: 1-day curative, potato Primura, scale 100 healthy to 0 infected
# Plasmopara viticola [2] = test: Preventive fungicidal activity against peronospora of vines, sprayed vine leaves (Example 7); assay type: in vivo; conditions: 7-day preventive, vine cv. Dolcetto, scale 0 (completely infected) to 100 (healthy plant); for Activity 500 ppm: 500 ppm as equivalent phosphorous acid; for Activity 1000 ppm: 1000 ppm as equivalent phosphorous acid
# Method: Determination of the Fungicidal Activity Against Peronospora of Vines (Plasmopara viticola).
# Vine leaves (cultivar Dolcetto), grown in vases in a conditioned environment (20±1° C., 70% relative humidity) are treated by spraying both sides of the leaves with compounds 1 and 2, dispersed in a hydroacetone solution at 20% by volume in acetone.
# After remaining 24 hours in a conditioned environment, the plants were sprayed on both sides of the leaves with an aqueous suspension of conidia of Plasmopara viticola (20,000 conidia per cm^3).
# The plants are kept in a humidity saturated environment at 21° C. for the incubation period of the fungus.
# At the end of this period (7 days), the fungicidal activity is evaluated according to an evaluation percentage scale from 0 (completely infected plant) to 100 (healthy plant).
# Plasmopara viticola [3] = test: 1-day curative fungicidal activity of fungicidal mixtures against peronospora of vines (Example 10); assay type: in vivo
# Method: Leaves of vines (cultivar Dolcetto), grown in vases in a conditioned environment (20±1° C.), 70% relative humidity) were infected with an aqueous suspension of spores of Plasmopara viticola (200,000 conidia per cm^3).
# (§1) After remaining 24 hours in a conditioned environment, both sides of the leaves were sprayed with the fungicidal mixtures under examination dissolved in a hydroacetone solution at 20% of acetone (vol./vol.).
# After drying, the plants were transferred for the incubation period of the fungus (6 days) to a conditioned at 70% relative humidity and 24° C.
# Phytophthora infestans [4] = assay type: in vivo
# Plasmopara tabacina = test: 1-day curative fungicidal activity of fungicidal mixtures against peronospora of tobacco (Example 11); assay type: in vivo
# Method: Determination of the Fungicidal Activity of Fungicidal Mixtures Against Peronospora of Tobacco (Plasmopara tabacina).
# Leaves of tobacco plants (cultivar Barley), grown in vases in a conditioned environment (20±1° C.), 70% relative humidity) were infected with an aqueous solution of spores of Plasmopara tabacina (200,000 conidia per cm^3).
# as §1
# After drying, the plants were transferred for the incubation period of the fungus (6 days) to a conditioned environment at 70% relative humidity and 24° C.
# [5] = 1575 ppm as equivalent phosphorous acid
# [6] = compound alone at 1575 ppm as equivalent phosphorous acid, 1-day curative, potato, scale 0-100
compound,measurement,setting,value
"O=[PH]([O-])[O-].[K+].[K+] [Compound K2HPO3, K2HPO3, reference compound]",Activity,Phytophthora infestans [1]; [5],40 (1575 ppm**)
same,Activity 500 ppm,Plasmopara viticola [2],45
same,Activity 1000 ppm,Plasmopara viticola [2],80
C[N+](C)(C)CCO.[Cl-] [Choline chloride],Activity (y),"Plasmopara viticola [3]; compound alone at 2047 ppm, 1-day curative, vine, scale 0-100",20
same,Activity (y),"Phytophthora infestans [4]; compound alone at 2730 ppm, 1-day curative, potato, scale 0-100",20
same,Activity,Phytophthora infestans [1]; 2690 ppm (quantity of choline contained in Compound No 2),15 (2690 ppm*)
same,Activity 500 ppm,Plasmopara viticola [2],35
same,Activity 1000 ppm,Plasmopara viticola [2],57
same,Activity (y),"Plasmopara tabacina; compound alone at 2047 ppm, 1-day curative, tobacco, scale 0-100",10
C[N+](C)(C)CCO.O=C([O-])O [Choline bicarbonate],Activity 500 ppm,Plasmopara viticola [2],75
same,Activity 1000 ppm,Plasmopara viticola [2],84
"CN(C)CCO [N,N-dimethylethanolamine]",Activity (y),Plasmopara viticola [3]; in vivo,25
same,Activity (y),Phytophthora infestans [4]; in vivo,30
same,Activity (y),Plasmopara tabacina; in vivo,5
Acid Choline Phosphite [Compound 2],Activity (y),Phytophthora infestans [4]; [6],65
same,Activity,Phytophthora infestans [1]; [5],65 (1575 ppm**)
same,Activity,"Phytophthora infestans [1]; 1575 ppm as equivalent phosphorous acid, […]",65
same,Activity 500 ppm,Plasmopara viticola [2],85
same,Activity 1000 ppm,Plasmopara viticola [2],95
Neutral Choline Phosphite [Compound 1],Activity (y),Phytophthora infestans [4]; [6],65
same,Activity 500 ppm,Plasmopara viticola [2],90
same,Activity 1000 ppm,Plasmopara viticola [2],100
CN(C)CCCO [3-dimethylamine-1-propanol],Activity (y),Phytophthora infestans [4]; in vivo,25
